Data published in PubChem BioAssay AID2060901 (Molecular Pharmacology Branch, DTP, NCI, 2025).

Test system: 422866-222-R5-J1-PDC complex spheroids viability
Test: Anticancer human tumor 422866-222-R5-J1-PDC patient-derived pancreatic adenocarcinoma cell line growth inhibition [RAS]
Settings: for viability, T/C: stronger effect = lower value
Outline: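 Tumour cells grown as complex spheroids with HUVEC endothelial cells and mesenchymal stem cells, treated with RAS pathway inhibitor combinations. Each agent spans half-log steps from near clinical Cmax, or 10 microM where Cmax is unknown.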
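Further: spheroids exposed to compounds for 7 days.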
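Wherever viability, T/C is given: 100% = DMSO vehicle control viability.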

CC(C)NCC(C(=O)N1CCN(c2ncnc3c2C(C)CC3O)CC1)c1ccc(Cl)cc1 (stereo not given) + C=CC(=O)N1CCN(c2nc(OCC3CCCN3C)nc3c(F)c(-c4nc(N)cc(C)c4C(F)(F)F)c(Cl)cc23)C(C)C1
IC50 (curve of first compound, second compound 0.00316 µM): < 31.6 nM
IC50 (curve of first compound, second compound 0.01 µM): < 31.6 nM
IC50 (curve of first compound, second compound 0.0316 µM): < 31.6 nM
IC50 (curve of first compound, second compound 0.1 µM): < 31.6 nM
IC50 (curve of first compound, second compound 0.316 µM): < 31.6 nM
IC50 (curve of first compound, second compound 1 µM): < 31.6 nM
viability, T/C (second compound 0.00316 µM, first compound 0.0316 µM): 27.2%
viability, T/C (second compound 0.00316 µM, first compound 0.1 µM): 32.1%
viability, T/C (second compound 0.00316 µM, first compound 0.316 µM): 19.7%
viability, T/C (second compound 0.00316 µM, first compound 1 µM): 17%
viability, T/C (second compound 0.00316 µM, first compound 3.16 µM): 16.7%
viability, T/C (second compound 0.00316 µM, first compound 10 µM): 16.7%
viability, T/C (second compound 0.01 µM, first compound 0.0316 µM): 23.3%
viability, T/C (second compound 0.01 µM, first compound 0.1 µM): 24.8%
viability, T/C (second compound 0.01 µM, first compound 0.316 µM): 17.9%
viability, T/C (second compound 0.01 µM, first compound 1 µM): 12.2%
viability, T/C (second compound 0.01 µM, first compound 3.16 µM): 12.6%
viability, T/C (second compound 0.01 µM, first compound 10 µM): 13.3%
viability, T/C (second compound 0.0316 µM, first compound 0.0316 µM): 27.9%
viability, T/C (second compound 0.0316 µM, first compound 0.1 µM): 22%
viability, T/C (second compound 0.0316 µM, first compound 0.316 µM): 14.4%
viability, T/C (second compound 0.0316 µM, first compound 1 µM): 14.9%
viability, T/C (second compound 0.0316 µM, first compound 3.16 µM): 14.2%
viability, T/C (second compound 0.0316 µM, first compound 10 µM): 14.3%
viability, T/C (second compound 0.1 µM, first compound 0.0316 µM): 21.6%
viability, T/C (second compound 0.1 µM, first compound 0.1 µM): 19.2%
viability, T/C (second compound 0.1 µM, first compound 0.316 µM): 15.2%
viability, T/C (second compound 0.1 µM, first compound 1 µM): 12%
viability, T/C (second compound 0.1 µM, first compound 3.16 µM): 13%
viability, T/C (second compound 0.1 µM, first compound 10 µM): 12.8%
viability, T/C (second compound 0.316 µM, first compound 0.0316 µM): 24.1%
viability, T/C (second compound 0.316 µM, first compound 0.1 µM): 16.4%
viability, T/C (second compound 0.316 µM, first compound 0.316 µM): 14.8%
viability, T/C (second compound 0.316 µM, first compound 1 µM): 13.6%
viability, T/C (second compound 0.316 µM, first compound 3.16 µM): 12.7%
viability, T/C (second compound 0.316 µM, first compound 10 µM): 16.6%
viability, T/C (second compound 1 µM, first compound 0.0316 µM): 23.6%
viability, T/C (second compound 1 µM, first compound 0.1 µM): 15.2%
viability, T/C (second compound 1 µM, first compound 0.316 µM): 16.7%
viability, T/C (second compound 1 µM, first compound 1 µM): 12.5%
viability, T/C (second compound 1 µM, first compound 3.16 µM): 13.9%
viability, T/C (second compound 1 µM, first compound 10 µM): 12.6%

CC(=O)OC12COC1CC(O)C1(C)C(=O)C(O)C3=C(C)C(OC(=O)C(O)C(NC(=O)OC(C)(C)C)c4ccccc4)CC(O)(C(OC(=O)c4ccccc4)C21)C3(C)C (stereo not given)
viability, T/C (compound 0.0316 µM): 60% [middle of 4 runs]
viability, T/C (compound 0.1 µM): 71.8% [middle of 4 runs]
viability, T/C (compound 0.316 µM): 71.4% [middle of 4 runs]
viability, T/C (compound 1 µM): 78.2% [middle of 4 runs]
viability, T/C (compound 10 µM): 77.4% [middle of 4 runs]
IC50 (curve of compound): > 10000 nM

CC(=O)OC12COC1CC(O)C1(C)C(=O)C(O)C3=C(C)C(OC(=O)C(O)C(NC(=O)OC(C)(C)C)c4ccccc4)CC(O)(C(OC(=O)c4ccccc4)C21)C3(C)C (stereo not given) + CCn1c(-c2cccnc2C(C)OC)c2c3cc(ccc31)N1CCOC(CC(NC(=O)C(C(C)C)N(C)C(=O)C3(F)CCN(C(=O)C#CC(C)(C)N(C)C)CC3)C(=O)N3CCCC(N3)C(=O)OCC(C)(C)C2)C1
IC50 (curve of first compound, second compound 0.000949 µM): < 31.6 nM
IC50 (curve of first compound, second compound 0.003 µM): < 31.6 nM
IC50 (curve of first compound, second compound 0.00949 µM): < 31.6 nM
IC50 (curve of first compound, second compound 0.03 µM): < 31.6 nM
IC50 (curve of first compound, second compound 0.0949 µM): < 31.6 nM
IC50 (curve of first compound, second compound 0.3 µM): < 31.6 nM
viability, T/C (second compound 0.000949 µM, first compound 0.0316 µM): 23.9%
viability, T/C (second compound 0.000949 µM, first compound 0.1 µM): 23.8%
viability, T/C (second compound 0.000949 µM, first compound 0.316 µM): 25.8%
viability, T/C (second compound 0.000949 µM, first compound 1 µM): 27.3%
viability, T/C (second compound 0.000949 µM, first compound 3.16 µM): 26.3%
viability, T/C (second compound 0.000949 µM, first compound 10 µM): 25.9%
viability, T/C (second compound 0.003 µM, first compound 0.0316 µM): 19.9%
viability, T/C (second compound 0.003 µM, first compound 0.1 µM): 19.6%
viability, T/C (second compound 0.003 µM, first compound 0.316 µM): 19%
viability, T/C (second compound 0.003 µM, first compound 1 µM): 21.1%
viability, T/C (second compound 0.003 µM, first compound 3.16 µM): 19.8%
viability, T/C (second compound 0.003 µM, first compound 10 µM): 21.1%
viability, T/C (second compound 0.00949 µM, first compound 0.0316 µM): 19.9%
viability, T/C (second compound 0.00949 µM, first compound 0.1 µM): 19%
viability, T/C (second compound 0.00949 µM, first compound 0.316 µM): 20.1%
viability, T/C (second compound 0.00949 µM, first compound 1 µM): 21.5%
viability, T/C (second compound 0.00949 µM, first compound 3.16 µM): 22.5%
viability, T/C (second compound 0.00949 µM, first compound 10 µM): 19.6%
viability, T/C (second compound 0.03 µM, first compound 0.0316 µM): 15.4%
viability, T/C (second compound 0.03 µM, first compound 0.1 µM): 19.2%
viability, T/C (second compound 0.03 µM, first compound 0.316 µM): 21.6%
viability, T/C (second compound 0.03 µM, first compound 1 µM): 19%
viability, T/C (second compound 0.03 µM, first compound 3.16 µM): 21.3%
viability, T/C (second compound 0.03 µM, first compound 10 µM): 23.9%
viability, T/C (second compound 0.0949 µM, first compound 0.0316 µM): 14.5%
viability, T/C (second compound 0.0949 µM, first compound 0.1 µM): 16.5%
viability, T/C (second compound 0.0949 µM, first compound 0.316 µM): 15.3%
viability, T/C (second compound 0.0949 µM, first compound 1 µM): 16.4%
viability, T/C (second compound 0.0949 µM, first compound 3.16 µM): 21.6%
viability, T/C (second compound 0.0949 µM, first compound 10 µM): 20.9%
viability, T/C (second compound 0.3 µM, first compound 0.0316 µM): 16.2%
viability, T/C (second compound 0.3 µM, first compound 0.1 µM): 17.9%
viability, T/C (second compound 0.3 µM, first compound 0.316 µM): 17.6%
viability, T/C (second compound 0.3 µM, first compound 1 µM): 16.8%
viability, T/C (second compound 0.3 µM, first compound 3.16 µM): 18.4%
viability, T/C (second compound 0.3 µM, first compound 10 µM): 19.9%
